{"source": "patent US6657106B2", "about": "“Removal of metals from contaminated substrates by plants” (ISIS Innovation Limited, priority 1995, dated 2003)", "key": {"[1]": {"system": "A. montanum", "conditions": "histidine supplied to the root medium of excised roots; earlier symposium report; cited from earlier work"}, "[2]": {"system": "A. montanum", "conditions": "histidine supplied to the xylem of excised shoots; cited from earlier work"}, "[3]": {"system": "A. montanum", "experiment": "Effect of histidine in the root medium on xylem-sap exudation and nickel flux of excised roots", "type": "in vivo, Alyssum montanum", "conditions": "0.3 mM NiSO4 with or without 0.3 mM histidine in root medium, exudate collected over 12 h", "excerpt": "6. […] That is, the application of relatively high concentrations of histidine exogenously is able to increase markedly both the nickel tolerance of an otherwise non-tolerant species of Alyssum (A. montanum) and to cause these plants to translocate nickel out of the root system at much higher rates. Thus, chelation of nickel by histidine is important both in the detoxification of the metal ion within the plant and in facilitating the transport of the metal from root to shoot, a characteristic of metal-hyperaccumulator plants generally (Baker, A. J. M. and Brooks, R. R. (1989) loc. cit.).\nFIG. 4. Effect of exogenously applied histidine on nickel tolerance and xylem nickel translocation. a, Effect of foliar spraying with histidine (compared with glutamine) on nickel tolerance of A. montanum, assayed as the effect on whole-plant dry biomass production and root elongation. After germination for 7 d, plants were grown in modified Hoagland solution (FIG. 1) containing either 0 or 0.03 mM NiSO4 for 23 d and were sprayed daily with a solution of either 20 mM glutamine (Ni) or 20 mM histidine (His+Ni), both containing 0.01% (v/v) of the non-ionic detergent Tween 20. Values of biomass production and root elongation are for nickel-treated plants expressed as percentages of the respective controls grown in the absence of nickel. Each bar represents the mean of 9 plants+1 SE. […]"}, "[4]": {"system": "A. lesbiacum", "experiment": "Effect of histidine in the root medium on xylem-sap exudation and nickel flux of excised roots", "type": "in vivo, Alyssum lesbiacum", "conditions": "0.3 mM NiSO4 with or without 0.3 mM histidine in root medium, 12 h", "excerpt": "FIG. 4. Effect of exogenously applied histidine on nickel tolerance and xylem nickel translocation. a, Effect of foliar spraying with histidine (compared with glutamine) on nickel tolerance of A. montanum, assayed as the effect on whole-plant dry biomass production and root elongation. […]. Values of biomass production and root elongation are for nickel-treated plants expressed as percentages of the respective controls grown in the absence of nickel. […]. Roots of 4-week-old plants were excised and exposed to a root medium of modified Hoagland solution supplemented with either 0.3 mM MgSO4 (controls) or 0.3 mM NiSO4, with or without 0.3 mM added histidine."}, "[5]": {"system": "A. montanum", "experiment": "Effect of foliar spraying with histidine on nickel tolerance", "type": "in vivo, Alyssum montanum", "conditions": "20 mM histidine daily foliar spray with 0.01% Tween 20; 0.03 mM NiSO4 in root medium, 23 d; compared with 20 mM glutamine", "protocol": "6. […]. Thus, chelation of nickel by histidine is important both in the detoxification of the metal ion within the plant and in facilitating the transport of the metal from root to shoot, a characteristic of metal-hyperaccumulator plants generally (Baker, A. J. M. and Brooks, R. R. (1989) loc. cit.).\nMETHODS. Plants were germinated for 7 d on floating nets in 1 mM Ca(NO3)2 solution, subsequently transferred to 1.2-1 culture vessels (10 plants per vessel), and supplied with modified 0.1-strength Hoagland solution containing 0.1 mM KH2PO4, 0.5 mM KNO3, 0.4 mM Ca(NO3)2, 0.2 mM MgSO4, 0.01 mM FeNaEDTA, 0.01 mM H3BO3, 2 μM MnSO4, 0.2 μM ZnSO4, 0.2 μM CuSO4, 0.1 μM Na2MoO4 and 0.02 mM NaCl, supplemented with 0, 0.01, 0.03, 0.1, 0.3, 1, or 3 mM NiSO4. Plants were grown in a glasshouse at night temperatures between 14° C. and 18° C. and day temperatures between 22° C. and 34° C. with supplementary lighting provided by sodium-vapour lamps to give a 16-h photoperiod. Culture solutions were continuously aerated and exchanged every 7 d; solution pH remained in the range 5.6 to 6.0. Plants were harvested after 18 d, rinsed with distilled water, dried at 80° C. for 48 h and weighed. […].\nFIG. 4. […] Values of biomass production and root elongation are for nickel-treated plants expressed as percentages of the respective controls grown in the absence of nickel. […]"}}, "note": "“Also recorded” adds a separate entry of the source."}
{"smiles": "N[C@@H](Cc1c[nH]cn1)C(=O)O", "note": "[histidine]", "values": [{"measurement": "toxicity of nickel (exudation of sap, flux of nickel through the root system)", "setting": "[1]", "value": "apparently reduced the toxicity of nickel"}, {"measurement": "toxicity of nickel", "setting": "[2]", "value": "apparently reduced the toxicity of nickel"}, {"measurement": "flux of nickel through the xylem", "setting": "[3]", "value": "greatly increased; also recorded: significantly greater"}, {"measurement": "rate of xylem-sap exudation", "setting": "[3]", "value": "moderated the adverse effect of nickel; also recorded: significantly greater"}, {"measurement": "nickel flux", "setting": "[4]", "value": "no significant differences"}, {"measurement": "xylem exudation rate", "setting": "[4]", "value": "no significant differences"}, {"measurement": "root elongation (inhibitory effect of nickel)", "setting": "[5]", "value": "halving of the inhibitory effect; also recorded: significantly greater"}, {"measurement": "whole-plant dry biomass production", "setting": "[5]", "value": "more than twofold increase; also recorded: significantly greater"}]}
